From the supplement of paper PMC13380429

What was measured:
Conditions in all cases: 72 h
Calu-3 [1] = experiment: cell viability relative to DMSO; higher = less toxic
Vero E6 [2] = experiment: as above
U2OS [3] = experiment: as above
Caco-2 [4] = experiment: as above
HepG2 [5] = experiment: as above
Calu-3 [6] = experiment: drug sensitivity score (DSS) for viability; higher = more toxic; extreme values may be limits of the assay
Vero E6 [7] = experiment: as above
U2OS [8] = experiment: as above
Caco-2 [9] = experiment: as above
HepG2 [10] = experiment: as above
Calu-3 [11] = experiment: relative viability EC50 (midpoint between 100% and the lowest measured viability); higher = less toxic
U2OS [12] = experiment: as above
HepG2 [13] = experiment: as above
Vero E6 [14] = experiment: as above

C=CC(=O)Nc1cc2c(Nc3ccc(F)c(Cl)c3)ncnc2cc1OCCCN1CCOCC1 [canertinib]
cell viability (Calu-3 [1]; 1 nM): 100% | cell viability (Calu-3 [1]; 10 nM): 89.8% | cell viability (Calu-3 [1]; 100 nM): 70.2% | cell viability (Calu-3 [1]; 1000 nM): 41.2% | cell viability (Calu-3 [1]; 10000 nM): 30.1% | cell viability (Vero E6 [2]; 1 nM): 98.5% | cell viability (Vero E6 [2]; 10 nM): 93.1% | cell viability (Vero E6 [2]; 100 nM): 86.3% | cell viability (Vero E6 [2]; 1000 nM): 65.6% | cell viability (Vero E6 [2]; 10000 nM): 51% | cell viability (U2OS [3]; 1 nM): 97.1% | cell viability (U2OS [3]; 10 nM): 98.5% | cell viability (U2OS [3]; 100 nM): 93.1% | cell viability (U2OS [3]; 1000 nM): 96.1% | cell viability (U2OS [3]; 10000 nM): 89.9% | cell viability (Caco-2 [4]; 1 nM): 91.7% | cell viability (Caco-2 [4]; 10 nM): 90.3% | cell viability (Caco-2 [4]; 100 nM): 81.6% | cell viability (Caco-2 [4]; 1000 nM): 81.5% | cell viability (Caco-2 [4]; 10000 nM): 69.5% | cell viability (HepG2 [5]; 1 nM): 105% | cell viability (HepG2 [5]; 10 nM): 97.6% | cell viability (HepG2 [5]; 100 nM): 105% | cell viability (HepG2 [5]; 1000 nM): 95.5% | cell viability (HepG2 [5]; 10000 nM): 90.5% | drug sensitivity score (Calu-3 [6]): 14.8 | drug sensitivity score (Vero E6 [7]): 7.8 | drug sensitivity score (U2OS [8]): 0 | drug sensitivity score (Caco-2 [9]): 5.4 | drug sensitivity score (HepG2 [10]): 0 | relative viability EC50 (Calu-3 [11]): 132 nM | relative viability EC50 (U2OS [12]): > 10000 nM | relative viability EC50 (HepG2 [13]): > 10000 nM

CN(C)CCCC1(c2ccc(F)cc2)OCc2cc(C#N)ccc21 (centres undefined) [citalopram]
drug sensitivity score (Calu-3 [6]): 0 | drug sensitivity score (Vero E6 [7]): 0 | drug sensitivity score (U2OS [8]): 0 | drug sensitivity score (HepG2 [10]): 0

C=C(c1ccccc1OCc1cccc(Cl)c1)n1ccnc1 [croconazole]
cell viability (Calu-3 [1]; 1 nM): 94.4% | cell viability (Calu-3 [1]; 10 nM): 104% | cell viability (Calu-3 [1]; 100 nM): 97.5% | cell viability (Calu-3 [1]; 1000 nM): 93.1% | cell viability (Calu-3 [1]; 10000 nM): 92.1% | cell viability (Vero E6 [2]; 1 nM): 102% | cell viability (Vero E6 [2]; 10 nM): 97% | cell viability (Vero E6 [2]; 100 nM): 112% | cell viability (Vero E6 [2]; 1000 nM): 107% | cell viability (Vero E6 [2]; 10000 nM): 105% | cell viability (U2OS [3]; 1 nM): 96.2% | cell viability (U2OS [3]; 10 nM): 104% | cell viability (U2OS [3]; 100 nM): 93.2% | cell viability (U2OS [3]; 1000 nM): 103% | cell viability (U2OS [3]; 10000 nM): 90% | cell viability (Caco-2 [4]; 1 nM): 102% | cell viability (Caco-2 [4]; 10 nM): 104% | cell viability (Caco-2 [4]; 100 nM): 90.9% | cell viability (Caco-2 [4]; 1000 nM): 87.8% | cell viability (Caco-2 [4]; 10000 nM): 69.6% | cell viability (HepG2 [5]; 1 nM): 102% | cell viability (HepG2 [5]; 10 nM): 101% | cell viability (HepG2 [5]; 100 nM): 102% | cell viability (HepG2 [5]; 1000 nM): 110% | cell viability (HepG2 [5]; 10000 nM): 88% | drug sensitivity score (Calu-3 [6]): 0 | drug sensitivity score (Vero E6 [7]): 0 | drug sensitivity score (U2OS [8]): 0 | drug sensitivity score (Caco-2 [9]): 2.5 | drug sensitivity score (HepG2 [10]): 0 | relative viability EC50 (Calu-3 [11]): > 10000 nM | relative viability EC50 (Vero E6 [14]): > 10000 nM | relative viability EC50 (U2OS [12]): > 10000 nM | relative viability EC50 (HepG2 [13]): > 10000 nM

COc1ccc(-c2cc(=O)c3c(O)cc(O[C@@H]4O[C@H](CO[C@@H]5O[C@@H](C)[C@H](O)[C@@H](O)[C@H]5O)[C@@H](O)[C@H](O)[C@H]4O)cc3o2)cc1O [diosmin]
drug sensitivity score (Calu-3 [6]): 0 | drug sensitivity score (Vero E6 [7]): 0 | drug sensitivity score (U2OS [8]): 0 | drug sensitivity score (HepG2 [10]): 0

CN1CCN(c2ccc3nc(-c4c(N)c5c(F)cccc5[nH]c4=O)[nH]c3c2)CC1 [dovitinib]
cell viability (Calu-3 [1]; 1 nM): 93.8% | cell viability (Calu-3 [1]; 10 nM): 97.7% | cell viability (Calu-3 [1]; 100 nM): 98.6% | cell viability (Calu-3 [1]; 1000 nM): 93.7% | cell viability (Calu-3 [1]; 10000 nM): 81.9% | cell viability (Vero E6 [2]; 1 nM): 97.4% | cell viability (Vero E6 [2]; 10 nM): 96.5% | cell viability (Vero E6 [2]; 100 nM): 99.6% | cell viability (Vero E6 [2]; 1000 nM): 63.2% | cell viability (Vero E6 [2]; 10000 nM): 42.1% | cell viability (U2OS [3]; 1 nM): 99% | cell viability (U2OS [3]; 10 nM): 99.5% | cell viability (U2OS [3]; 100 nM): 93.5% | cell viability (U2OS [3]; 1000 nM): 97.8% | cell viability (U2OS [3]; 10000 nM): 42.3% | cell viability (Caco-2 [4]; 1 nM): 98.4% | cell viability (Caco-2 [4]; 10 nM): 101% | cell viability (Caco-2 [4]; 100 nM): 87.5% | cell viability (Caco-2 [4]; 1000 nM): 85.7% | cell viability (Caco-2 [4]; 10000 nM): 61.8% | cell viability (HepG2 [5]; 1 nM): 115% | cell viability (HepG2 [5]; 10 nM): 96.8% | cell viability (HepG2 [5]; 100 nM): 102% | cell viability (HepG2 [5]; 1000 nM): 60.8% | cell viability (HepG2 [5]; 10000 nM): 28.8% | drug sensitivity score (Calu-3 [6]): 0.9 | drug sensitivity score (Vero E6 [7]): 7.5 | drug sensitivity score (U2OS [8]): 3.4 | drug sensitivity score (Caco-2 [9]): 3.6 | drug sensitivity score (HepG2 [10]): 8.7 | relative viability EC50 (Calu-3 [11]): > 10000 nM | relative viability EC50 (Vero E6 [14]): 794 nM | relative viability EC50 (U2OS [12]): 2880 nM | relative viability EC50 (HepG2 [13]): 924 nM
